The test system of test [1] is plum cv. ‘PP7524-7’. As to the kind of experiment: BABA application in the spring 4-7 days prior to frost exposure. It is filed as in vivo. Particulars: application 4-7 days prior to frost; following spring frost damage. An excerpt:
Finally, BABA application in the spring 4-7 days prior to frost exposure increased fruit set in plum cv. ‘PP7524-7’ following spring frost damage (FIG. 5).

Test [2] relates to ‘Fuji’ apple trees. Put plainly: BABA at different bud development stages; branches in programmable freeze chamber five days later. The note with it: treated 5 days before cold exposure; all developmental stages, except for full opened flowers; compared to control. It is filed as in vivo, apple (Malus domestica). The method, then: BABA was also applied to ‘Fuji’ apple trees at different bud development stages. Five days later, treated and untreated (control) branches were collected and placed in a programmable freeze chamber. Flowers killed were evaluated as described above. BABA decreased the percentage of flowers killed as compared to control at all developmental stages, except for full opened flowers (FIG. 2).

The subject of test [3] is Sweet cherry cv. ‘Bing’ trees. Put plainly: BABA spray in the field; flower fate of limbs in programmable freeze chamber; fruit set, fruit size, leaf area, leaf chlorophyll on other limbs. The class given is in vivo, sweet cherry (Prunus avium). The method, then: Sweet cherry cv. ‘Bing’ trees were sprayed in the field with BABA and the fate of flowers from randomly selected sample limbs placed in a programmable freeze chamber was evaluated. Random limbs were removed from the freeze chamber within 10 minutes of reaching selected air temperatures, and were left at room temperature for 1 hour. Pistil/ovary survival was then assessed visually on every flower. Flowers with healthy green stylar and ovary tissue were rated as live. Flowers with discolored (for example, brown) stylar or ovary tissues were rated as dead. Fruit set, fruit size, average leaf area, and leaf chlorophyll content index were evaluated on other limbs of the treated trees.

The subject of test [4] is sweet cherry cultivar ‘Chelan’. As to the kind of experiment: Autumn application of BABA, natural frost damage the following spring. The class given is in vivo, sweet cherry (Prunus avium). An excerpt: (§1) Application of BABA to sweet cherry cultivars ‘Bing,’ ‘Chelan,’ and ‘Van’ in autumn decreased the percentage of flowers killed after natural frost damage the following spring (FIG. 3). […] Bing after spring frost damage (FIG. 4).

The subject of test [5] is sweet cherry cultivar ‘Van’. The description is as above. It is filed as in vivo, sweet cherry (Prunus avium).
Text: as §1

The test system of test [6] is sweet cherry cultivar ‘Bing’. Described as above. The class given is in vivo, sweet cherry (Prunus avium).
Text: as §1

For test [7], the system named is sweet cherry cv. ‘Bing’. As to the kind of experiment: CPA applied at full bloom; fruit set and fruit size at harvest. It is filed as in vivo, sweet cherry (Prunus avium). The method, then:
Plant growth regulators were applied to limbs of sweet cherry cv. ‘Bing’ at full bloom when essentially all flowers were open. Fruit set was recorded as a percent of available flowers from flower counts made prior to application and fruit counts made just prior to harvest. Fruit set in trees treated with 4-chlorophenoxyacetic acid (CPA) at 10 or 30 ppm was higher than untreated control in both small and large scale trials (FIG. 18). […] (Table 2).

Test [8] relates to sweet cherry cultivar ‘8011-3’. The test is described as above. Particulars: 30 ppm CPA at full bloom. The class given is in vivo, sweet cherry (Prunus avium).
The test system of test [9] is sweet cherry cultivar ‘Tieton’. The test is described as above. It is filed as in vivo, sweet cherry (Prunus avium). The note with it: 30 ppm CPA at full bloom.
Test [10] relates to sweet cherry cv ‘Bing’ on ‘Gisela® 1’ rootstock. As to the kind of experiment: Experiment 1: limb trial of PCa and GAs alone or in combination, applied 30 days after anthesis. The class given is in vivo, sweet cherry (Prunus avium). The note with it: for Firmness / Fruit diameter / Fruit weight / TSS: applied at 30 days after anthesis, PCa 150 mg/L, GAs 30 mg/L, at harvest. The method, then: (§2) A limb trial was conducted to evaluate effects of bioactive gibberellins (GA), prohexadione-calcium (PCa), or combinations applied before harvest on fruit quality of sweet cherry. The most efficacious treatments were utilized in a larger scale trial to investigate their effects on the whole tree scale and postharvest characteristics of fruit. Twelve-year-old sweet cherry cv ‘Bing’ on ‘Gisela® 1’ rootstock was selected for both experiments and trained to a central leader architecture. Both trials were carried out at Washington State University Roza farm, Prosser, Wash., USA (N 46.2°, W 119.7°).
Three limbs with uniform vigor were selected from each of 10 trees. Treatments were applied to the limbs randomly spread across ten trees at 30 days after anthesis, approximately coinciding with the onset of pit hardening (stage II of fruit development) in ‘Bing’. The experiment consisted of 10 treatments, including water (the untreated control) and PCa at 150 mg/L. Bioactive GA1, GA3, and GA4/7 (70:30 GA4:GA7) were applied as a foliar spray at 30 mg/L alone or in combination with PCa at 150 mg/L. In addition, the combination of GA3 and GA4/7 at 30 mg/L was applied, or in combination with PCa at 150 mg/L. PCa was the commercial product Apogee® (27.5% PCa; BASF Corp., Research Triangle Park, N.C.) and all bioactive GAs (purity >90%) were purchased from OlChemIm Ltd. (Olomouc, Czech Republic). Each treatment was made with a pressurized handgun sprayer to entire limbs, ceasing at the first runoff.
Twenty fruit per treatment were randomly selected and flagged for monitoring fruit growth by measuring fruit equatorial diameter and height weekly after treatment. All current-season shoots on treated limbs were measured weekly to investigate treatment effects on shoot growth. Harvest timing was determined as the day when the majority of fruit had achieved commercial maturity, based on exocarp color. At harvest, all fruit on treated limbs were harvested and transported to the laboratory for fruit quality analysis. Floral bud density on the treated limbs was assessed by counting all spurs and the number of reproductive buds per spur.
All fruit from each limb in Experiment 1 and sub-samples from Experiment 2 were weighed individually and fruit size distribution was calculated according to fruit weight. Color sorting was conducted manually according to the color comparators developed by CTIFL (Centre Technique Interprofessionnel des Fruit et Legumes, France), which categorize cherry color into 8 levels from Green, CTIFL 1 to CTIFL 7. Fruit number in each category was counted and color distribution was assessed. Subsequently, all fruit were analyzed for firmness and row size measurement with a FirmTech 2 (BioWorks, Inc, Wamego, Kans.) at room temperature. Then, 25 fruit were randomly selected and 5 groups of 5 fruit were mixed for soluble solids content, pH and titratable acidity measurement. Fruit soluble solids were measured using a digital refractometer (Atago, Japan). Approximately 0.5 mL of juice was dropped directly onto the surface of the refractometer and the measurement immediately taken. Juice pH and titratable acidity were measured with a Mettler DL12 Titrator (Mettler-Toledo, Columbus, Ohio).
All trials were established as randomized complete-block designs. All data were subjected to analysis of variance using the General Linear Models (GLM) program of the SAS statistical analysis package (SAS Institute, Cary, N.C.).

Test [11] has the same test system. As to the kind of experiment: Experiment 2: whole tree trial of PCa alone or with GA3 or GA4/7, applied 30 (FS) or 37 (SS) days after anthesis; fruit quality, storability, sensory analysis. It is filed as in vivo, sweet cherry (Prunus avium). As to the method:
as §2
Experiment 2 included treatments at the whole tree level. Applications of GA3 or GA4/7 (70:30 GA4:GA7) were made to entire trees at 30 mg/L in combination with PCa at 150 mg/L. PCa (150 mg/L) alone was also applied and an untreated control treatment was included. To investigate the role of application timing of plant growth regulators, all treatments were applied at 30 (first spray (FS)) or 37 days after anthesis (second spray (SS)). In this experiment, 24 trees in the same orchard as those in Experiment 1 were selected for whole tree treatment and assigned randomly into one of two 12-tree groups for the timing study. Treatments were then randomly assigned to each of three trees per application timing. Treatments were applied to entire trees by pressurized handgun sprayer to the point of first runoff. All applications were completed in the morning between 0800 and 1100, and applied on days with little or no wind. To prevent spray drift onto neighboring experimental units, all the trees were selected in the same row and 2-3 trees were selected as ‘border’ trees between experimental units.
Twenty fruit per treatment were marked for weekly fruit size measurement, and six current terminal shoots were selected for monitoring shoot growth weekly after treatment. […] Whole tree yield was determined at harvest, in the field, with a portable digital scale. The effect of treatment on total yield per tree (kg tree^−1) and the yield of large fruit (29.8 mm+) (kg tree^−1) was assessed. […]
All fruit from each limb in Experiment 1 and sub-samples from Experiment 2 were weighed individually and fruit size distribution was calculated according to fruit weight. […] Fruit number in each category was counted and color distribution was assessed. Subsequently, all fruit were analyzed for firmness and row size measurement with a FirmTech 2 (BioWorks, Inc, Wamego, Kans.) at room temperature. […] Fruit soluble solids were measured using a digital refractometer (Atago, Japan). […] Juice pH and titratable acidity were measured with a Mettler DL12 Titrator (Mettler-Toledo, Columbus, Ohio). […]

The mark [12] stands for this setting: BABA at both concentrations (100 and 500 ppm), compared to control.

The structures appear in SMILES notation. Entries after “also recorded” stand apart in the source; their conditions may differ. Marks after values point to notes of the source that are not given here. Some results are limits rather than exact numbers.

As for `CC(N)CC(=O)O` (racemic) [BABA, DL-β-aminobutyric acid], the fruit set result in test [1] and in test [3] (setting [12]) was “increased” throughout. Further, the “percentage of flowers killed” value in test [2] is on record as “decreased”; in test [3] (100 ppm BABA, −3.5° C. and −4.5° C., compared to control (untreated) trees) it was “decreased”; in test [3] (500 ppm BABA, compared to control), “decreased”; in test [4] it was “decreased”; in test [5], “decreased”; in [6] (natural frost the following spring) it was “decreased”. The average leaf area entry in [3] (setting [12]) is “increased”. The fruit size result in test [3] (setting [12]) is on record as “increased”. Besides, the “leaf chlorophyll content index” value in test [3] (setting [12]) is “increased”. In addition, the pistil survival result in test [6] (after spring frost damage) was “increased”.

Take `O=C(O)COc1ccc(Cl)cc1` [4-CPA, 4-chlorophenoxyacetic acid]: the “fruit set compared with untreated control” value in test [7] (CPA at 10 or 30 ppm at full bloom, small and large scale trials (FIG. 18)) is “higher”. Moreover, the “Fruit Set (%)” value in test [7] (‘Bing’, 30 ppm CPA applied to the flowers at full bloom, untreated 30.0) was determined as 58.0%; in test [8] (untreated 7.0) it was 16.0%; in test [9] (untreated 26.0), 35.0%. Also, the “Average fruit size” value in test [7] (‘Bing’, 30 ppm CPA at full bloom, at harvest, untreated 7.3) came to 8.4 g; in [8] (at harvest, untreated 10.5) it was 13.6 g; in [9] (at harvest, untreated 7.2), 8.6 g.

`C=C1C[C@]23C[C@@]1(O)CC[C@H]2[C@@]12CC[C@H](O)[C@@](C)(C(=O)O1)[C@H]2[C@@H]3C(=O)O` [GA1, gibberellin A1]: in [10], the Firmness is 280.2^c g/mm, the Fruit diameter was 26.52^bc mm, the Fruit weight is 8.44^bc g and the TSS is 20.84^b Brix.

Turning to `C=C1C[C@]23C[C@@]1(O)CC[C@H]2[C@@]12C=C[C@H](O)[C@@](C)(C(=O)O1)[C@H]2[C@@H]3C(=O)O` [GA3, gibberellin A3], in test [10], the Firmness is given as 316.9^a g/mm, the Fruit diameter is listed as 26.49^bc mm, the Fruit weight is recorded as 8.23^cd g and the TSS is reported as 22.23^a Brix.

In the case of `CCC(=O)C1=C(O)CC(C(=O)O)CC1=O` (stereo not shown) [PCa, calcium 3-oxido-4-propionyl-5-oxo-cyclohexene carboxylate], the “fruit categorized as healthy after storage” value in [11] (30 days at 4° C., spray timing not stated, 5% for untreated trees) is listed as < 10%. For the same compound, the “increase in fruit in the ≧10 g category compared to the control” value in test [11] (both first and second spray timings) was 15%. Moreover, the “percentage of fruit with green and turgid pedicels after storage” value in test [11] (first spray treatments, control 30%) is recorded as 24%. In test [11] (single spray, irrespective of timing, compared with the control and PCa+GAs), the “shoot growth / vegetative extension growth” value is “reduced; also recorded: reductions”. In test [10], the Firmness is 278.3^c g/mm, the Fruit diameter is listed as 24.75^f mm, the Fruit weight is given as 7.26^f g and the TSS was 19.18^cd Brix. Besides, the “effect on fruit weight / fruit size compared with the untreated control” value in [10] (limb trial, single application at 30 days after anthesis) is “no positive effect”. The “length of current season extension shoots relative to untreated” value in test [10] (single application, after terminal bud set (FIG. 8)) was “less than half the length”.

(Values after patent publication US8680014B2, “Methods for improving fruit production and fruit quality” (Washington State University Research Foundation, priority 2010, dated 2014).)
